Experimental data: patent US8614205B2, “Glutamate receptor modulators and therapeutic agents” (priority 2009, dated 2013)
Values joined by “and” are separate entries in the source; they are usually repeats but may differ in a detail not shown here. Equal values may be shown once. Read-outs that look alike come from different tables or passages of the source. Blank lines part the entries; values can stand above or below the compound they belong to.

Key:
mGluR5 = target: T1, mGluR5 (Homo sapiens, UniProt P41594); experiment: aequorin calcium assay, negative allosteric modulation of mGluR5; type: cell-based
T1 construct: expression induced with doxycycline
Description: (§1) The ability of test compound to ameliorate the efflux of calcium cations (Ca^++) in the presence of agonist (glutamate or quisqualate) is measured by detection of light emitted by the luminescent protein aequorin triggered by binding of Ca^++. Aequorin is a photoprotein isolated from luminescent jellyfish (like various Aequorea species e.g. Aequorea victoria). Aequorin is composed of two distinct units, the apoprotein apoaequorin, with an approximate molecular weight of 22 kDa, and the prosthetic group, coelenterazine, responsible for emission of light. In the presence of molecular oxygen the two components of aequorin assemble spontaneously, forming the functional protein. Four EF-hand type regions have been identified in the structure of Aequorin and at least 3 of them function as binding sites for Ca+2 ions: Ca+2 binding to these EF hands triggers a conformational change of the protein, that leads it to oxidize its prosthetic group, coelenterazine, into excited coelenteramide and CO2. As the excited coelenteramide relaxes to the ground state, blue light (wavelength=469 nm) is emitted and can be measured by a luminometer. Negative allosteric modulator activity of test compound is expressed as a percentage of the stimulation of reference agonist (glutamate) activity at its EC80 concentration. Assay of Compounds was performed at Euroscreen SA, Gosselies, Belgium.
(§2) Cells stably transfected with mGlu1 or mGlu5 were grown 18 hours prior to the test in culture medium containing 600 ng/ml doxycycline, then were detached by gentle flushing with PBS-EDTA, recovered by centrifugation and resuspended in “assay buffer” (HBSS, 2.1 mM CaCl2, 3 μg/ml GPT (Glutamate-Pyruvate transaminase), 4 mM MEM Sodium Pyruvate, 0.1% BSA, protease free). Cells were incubated at room temperature for at least 4 h with coelenterazine-h. Dose response curves were performed using mGluR1 cells with the orthosteric agonist glutamate and negative allosteric modulator JNJ16259685. Dose response curves were performed using mGluR5 cells with the orthosteric agonist glutamate and negative allosteric modulator MPEP. For agonist testing, 30 μl of cell suspension were mixed with 30 μl of test compound or reference agonist in a 384-well plate. The resulting emission of light was recorded using the Hamamatsu Functional Drug Screening System 6000 (FDSS 6000). For negative allosteric modulator testing, 60 μl of the resulting cell suspension containing the test compound was mixed with 30 μl of the reference agonist at EC80 following an incubation of 3 min after the first injection. The resulting emission of light was recorded using FDSS 6000. […] Plates also contained the reference agonist at a concentration equivalent to the EC80 obtained during the test validation. Negative allosteric modulator activity of test compound was expressed as a percentage of the stimulation of reference agonist activity at its EC80 concentration.

mGluR1 [1] = target: T2, mGluR1 (Homo sapiens, UniProt Q13255); experiment: aequorin calcium assay, negative allosteric modulation of mGluR1; type: cell-based; settings: thiazole derivatives of benzamide, in vitro activity; read-out: binding at mGluR1
T2 construct: expression induced with doxycycline

mGluR1 [2] = target: T2, mGluR1; experiment: as above; type: cell-based; settings: aequorin assay, agonist at EC80; 10000 = no activity observed at 10,000 nM
Description: as §1, §2

[3] = tested on: hyperalgesia in partial sciatic nerve ligation rat; experiment: partial sciatic nerve ligation (PSN) model of neuropathic pain, paw withdrawal method; type: in vivo; set-up: AUC (0-5): unit not given beside the values; settings: for % MPE (0-100) 1 hr / Paw withdrawal thresholds (g; raw data) 1 hr / Raw MPE (%) 1 hr / % MPE (0-100) 3 hrs / Paw withdrawal thresholds (g; raw data) 3 hrs / Raw MPE (%) 3 hrs / % MPE (0-100) 5 hrs / Paw withdrawal thresholds (g; raw data) 5 hrs / Raw MPE (%) 5 hrs / % MPE (0-100) 24 hrs / Paw withdrawal thresholds (g; raw data) 24 hrs / Raw MPE (%) 24 hrs / AUC (0-5): PSN Sx rat
Description: Briefly, under gas anesthesia, the skin and muscles of the thigh were reflected to expose the sciatic nerve. About one-third to one-half of the cross-sectional area of the nerve was tightly ligated using a 7-0 nylon suture. The incision was closed in layers (suture for muscle, surgical adhesive for skin). […] Treated rats were assayed at 1, 3, 5, and 24 hr using the paw withdrawal method (L. Randall and J. Selitto, 1957, Arch. Int. Pharmacodynam., 111:409-19). […] The Partial sciatic nerve ligation assay was performed at Eurofins/Product Safety Laboratories (Dayton, N.J.).
Animals were housed in cages which conform to the size recommendations in the most recent NIH Guide for the Care and Use of Laboratory Animals. […] The animals were fed Purina Rodent Chow #5012. The animals were acclimated to the facility for 7 days prior to the study. A pre-operative baseline paw withdrawal measure was collected for all rats. […] After recovery, a pre-dosing baseline paw withdrawal threshold was collected for all rats. […] Rats were lightly anesthetized and treated with test article or vehicle. Paw withdrawal thresholds were determined at one, three, five, and 24 hours post dosing. […] Briefly, under gas anesthesia, the skin and muscles of the thigh were reflected to expose the sciatic nerve. About one third to one half of the cross-sectional area of the nerve was tightly ligated using a 7-0 nylon suture. The incision was closed in layers (suture for muscle, surgical adhesive for skin). Test article or vehicle was administered by transcutaneous injection (C. Mestre et al., 1994, J. Pharm. Tox. Meth., 32:197-200). Briefly, the rat was lightly anesthetized and placed to flex the lower lumbar vertebrae. After palpating the vertebral processes, a 26 gauge needle was inserted through a vertebral interspace. The presence of a tail flick was considered validation of the needle placement; the solution was then injected. Paw withdrawal thresholds were assessed using a paw pressure device (L. O. Randall & J. J. Selitto, 1957, Arch. Int. Pharmacodyn., 111:409-19). The behavioral endpoint was defined as paw withdrawal. Data was analyzed by two-way analysis of variance (repeated measures) with Bonferroni tests at individual time points. Paw withdrawal threshold raw values were used for the analysis, and each route of administration was analyzed separately. Vehicle-treated groups were used as the statistical comparison groups.

[4] = thiazole derivatives of benzamide, in vitro activity, read-out: binding at mGluR5
[5] = 10 μg intrathecal, group Average (N 6)
[6] = 10 μg intrathecal, individual rat, listed as SND 121
[7] = 49 μg intrathecal, group Average (N 6)
[8] = 49 μg intrathecal, individual rat, listed as SND 121

T1 sequence (P41594 21-1212): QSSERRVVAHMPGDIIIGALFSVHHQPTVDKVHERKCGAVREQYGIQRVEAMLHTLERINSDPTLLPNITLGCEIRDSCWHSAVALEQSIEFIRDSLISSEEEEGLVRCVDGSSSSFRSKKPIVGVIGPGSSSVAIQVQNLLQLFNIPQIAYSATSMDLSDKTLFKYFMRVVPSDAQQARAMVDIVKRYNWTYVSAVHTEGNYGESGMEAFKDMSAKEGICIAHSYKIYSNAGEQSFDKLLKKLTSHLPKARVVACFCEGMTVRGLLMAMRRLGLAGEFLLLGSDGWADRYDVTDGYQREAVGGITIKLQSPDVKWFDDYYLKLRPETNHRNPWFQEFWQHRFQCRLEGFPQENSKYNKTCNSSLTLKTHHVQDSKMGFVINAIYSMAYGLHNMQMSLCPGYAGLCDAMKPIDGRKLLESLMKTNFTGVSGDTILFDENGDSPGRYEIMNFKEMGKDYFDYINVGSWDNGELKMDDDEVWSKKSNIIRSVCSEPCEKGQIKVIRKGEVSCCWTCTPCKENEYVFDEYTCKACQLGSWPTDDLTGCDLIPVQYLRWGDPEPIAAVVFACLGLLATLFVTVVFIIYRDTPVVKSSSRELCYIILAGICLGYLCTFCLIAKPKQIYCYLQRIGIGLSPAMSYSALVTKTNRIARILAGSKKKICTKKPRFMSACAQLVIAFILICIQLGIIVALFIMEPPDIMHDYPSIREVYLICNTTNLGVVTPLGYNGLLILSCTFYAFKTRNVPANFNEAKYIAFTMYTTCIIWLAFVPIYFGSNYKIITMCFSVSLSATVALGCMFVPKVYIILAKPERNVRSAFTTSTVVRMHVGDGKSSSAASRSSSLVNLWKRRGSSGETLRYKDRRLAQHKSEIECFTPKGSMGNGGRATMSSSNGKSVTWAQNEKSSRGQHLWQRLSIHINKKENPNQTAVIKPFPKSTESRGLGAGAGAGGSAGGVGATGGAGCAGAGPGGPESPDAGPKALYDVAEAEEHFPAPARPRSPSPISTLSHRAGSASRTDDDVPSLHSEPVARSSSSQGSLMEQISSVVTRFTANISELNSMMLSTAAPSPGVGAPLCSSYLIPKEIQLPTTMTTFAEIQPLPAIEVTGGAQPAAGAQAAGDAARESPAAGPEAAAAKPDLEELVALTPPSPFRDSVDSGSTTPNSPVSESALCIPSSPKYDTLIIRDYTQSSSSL
T2 sequence (Q13255 19-1194): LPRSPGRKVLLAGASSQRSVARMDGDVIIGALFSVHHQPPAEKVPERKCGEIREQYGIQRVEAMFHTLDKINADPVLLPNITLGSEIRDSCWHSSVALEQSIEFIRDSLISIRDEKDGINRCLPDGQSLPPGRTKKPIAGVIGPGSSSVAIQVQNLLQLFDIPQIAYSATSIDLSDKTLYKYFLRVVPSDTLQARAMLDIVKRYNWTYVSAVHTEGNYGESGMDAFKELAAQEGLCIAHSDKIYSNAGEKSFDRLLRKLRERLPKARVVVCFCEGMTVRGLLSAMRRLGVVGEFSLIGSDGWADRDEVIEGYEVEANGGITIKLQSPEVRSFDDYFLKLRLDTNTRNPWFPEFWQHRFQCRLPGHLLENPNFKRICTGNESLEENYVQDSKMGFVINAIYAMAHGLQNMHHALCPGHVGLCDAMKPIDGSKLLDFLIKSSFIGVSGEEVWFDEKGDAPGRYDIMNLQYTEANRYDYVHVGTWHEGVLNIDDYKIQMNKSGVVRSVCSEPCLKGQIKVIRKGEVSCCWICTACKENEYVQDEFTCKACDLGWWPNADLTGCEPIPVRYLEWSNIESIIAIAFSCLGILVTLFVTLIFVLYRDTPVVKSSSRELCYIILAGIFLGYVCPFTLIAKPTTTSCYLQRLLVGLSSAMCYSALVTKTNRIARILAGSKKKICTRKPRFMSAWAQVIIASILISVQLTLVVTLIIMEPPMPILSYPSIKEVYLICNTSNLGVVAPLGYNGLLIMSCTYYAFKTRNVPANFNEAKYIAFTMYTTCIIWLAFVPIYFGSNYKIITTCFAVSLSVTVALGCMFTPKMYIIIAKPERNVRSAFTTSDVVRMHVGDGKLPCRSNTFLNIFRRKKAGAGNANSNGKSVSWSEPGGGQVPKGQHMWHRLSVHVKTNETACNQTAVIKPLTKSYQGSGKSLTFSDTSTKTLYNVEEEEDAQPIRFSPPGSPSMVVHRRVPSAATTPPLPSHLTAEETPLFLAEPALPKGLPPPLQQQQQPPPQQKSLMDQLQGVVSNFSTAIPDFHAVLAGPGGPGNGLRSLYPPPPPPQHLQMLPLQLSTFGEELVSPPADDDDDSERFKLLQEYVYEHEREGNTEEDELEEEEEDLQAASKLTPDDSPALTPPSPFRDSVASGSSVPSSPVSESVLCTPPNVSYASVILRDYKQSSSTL

- EC50 (mGluR5; [4]): 2760 nM
- EC50 (mGluR1 [1]): 6320 nM
SMILES: CC(=O)Oc1ccc(Cl)cc1C(=O)Nc1nc([N+](=O)[O-])cs1

- EC50 (mGluR5; [4]): 1250 nM
- EC50 (mGluR1 [1]): 1760 nM
SMILES: O=C(Nc1nc([N+](=O)[O-])cs1)c1cc(Cl)ccc1O

- EC50 (mGluR1 [2]): 38 nM
- EC50 (mGluR5; aequorin assay, agonist at EC80, 10000 = no activity observed at 10,000 nM, read-out: mGluR5 EC50): 62 nM
SMILES: O=C(Nc1ccc([N+](=O)[O-])cc1Cl)c1cc(Cl)ccc1O [Compound 1, 5-Chloro-N-(2-chloro-4-nitrophenyl)-2-hydroxybenzamide]
- % MPE (0-100) 1 hr [3, 5]: 29.7%
- Paw withdrawal thresholds (g; raw data) 1 hr [3, 5]: 125.8 g
- Raw MPE (%) 1 hr [3, 5]: 31.3%
- % MPE (0-100) 1 hr [3, 6]: 0.0% (3×) and 6.7% and 100.0% and 71.5%
- Paw withdrawal thresholds (g; raw data) 1 hr [3, 6]: 90 g (2×) and 60 g and 105 g and 250 g and 160 g
- Raw MPE (%) 1 hr [3, 6]: −10.9% (2×) and 6.7% and 177.6% and 71.5%
- % MPE (0-100) 3 hrs [3, 5]: 39.9%
- Paw withdrawal thresholds (g; raw data) 3 hrs [3, 5]: 130.0 g
- Raw MPE (%) 3 hrs [3, 5]: 41.8%
- % MPE (0-100) 3 hrs [3, 6]: 41.8% and 27.5% and 0.0% (2×) and 100.0% and 70.3%
- Paw withdrawal thresholds (g; raw data) 3 hrs [3, 6]: 130 g and 120 g and 100 g (2×) and 180 g and 150 g
- Raw MPE (%) 3 hrs [3, 6]: 41.8% and 27.5% and −1.0% (2×) and 113.1% and 70.3%
- % MPE (0-100) 5 hrs [3, 5]: 34.7%
- Paw withdrawal thresholds (g; raw data) 5 hrs [3, 5]: 122.5 g
- Raw MPE (%) 5 hrs [3, 5]: 33.6%
- % MPE (0-100) 5 hrs [3, 6]: 30.3% (2×) and 0.0% and 43.6% and 100.0% and 3.8%
- Paw withdrawal thresholds (g; raw data) 5 hrs [3, 6]: 120 g (2×) and 70 g and 130 g and 195 g and 100 g
- Raw MPE (%) 5 hrs [3, 6]: 30.3% (2×) and −36.0% and 43.6% and 129.9% and 3.8%
- % MPE (0-100) 24 hrs [3, 5]: 28.6%
- Paw withdrawal thresholds (g; raw data) 24 hrs [3, 5]: 117.5 g
- Raw MPE (%) 24 hrs [3, 5]: 33.9%
- % MPE (0-100) 24 hrs [3, 6]: 44.5% and 16.2% and 2.0% and 9.1% and 100.0% and 0.0%
- Paw withdrawal thresholds (g; raw data) 24 hrs [3, 6]: 125 g and 105 g and 95 g and 100 g and 195 g and 85 g
- Raw MPE (%) 24 hrs [3, 6]: 44.5% and 16.2% and 2.0% and 9.1% and 143.7% and −12.1%
- AUC (0-5) [3, 5]: 159.1
- AUC (0-5) [3, 6]: 113.9 and 85.3 and 0.0 and 53.7 and 450.0 and 251.7
- % MPE (0-100) 1 hr [3, 7]: 80.7%
- Paw withdrawal thresholds (g; raw data) 1 hr [3, 7]: 199.2 g
- Raw MPE (%) 1 hr [3, 7]: 117.7%
- % MPE (0-100) 1 hr [3, 8]: 100.0% (4×) and 48.0% and 36.2%
- Paw withdrawal thresholds (g; raw data) 1 hr [3, 8]: 250 g (2×) and 190 g and 140 g and 130 g and 235 g
- Raw MPE (%) 1 hr [3, 8]: 177.6% (2×) and 106.9% and 48.0% and 36.2% and 159.9%
- % MPE (0-100) 3 hrs [3, 7]: 54.2%
- Paw withdrawal thresholds (g; raw data) 3 hrs [3, 7]: 163.3 g
- Raw MPE (%) 3 hrs [3, 7]: 89.3%
- % MPE (0-100) 3 hrs [3, 8]: 100.0% (2×) and 70.3% and 0.0% and 41.8% and 13.2%
- Paw withdrawal thresholds (g; raw data) 3 hrs [3, 8]: 250 g (2×) and 150 g and 90 g and 130 g and 110 g
- Raw MPE (%) 3 hrs [3, 8]: 212.9% (2×) and 70.3% and −15.3% and 41.8% and 13.2%
- % MPE (0-100) 5 hrs [3, 7]: 31.8%
- Paw withdrawal thresholds (g; raw data) 5 hrs [3, 7]: 119.2 g
- Raw MPE (%) 5 hrs [3, 7]: 29.2%
- % MPE (0-100) 5 hrs [3, 8]: 100.0% and 43.6% (2×) and 3.8% and 0.0% (2×)
- Paw withdrawal thresholds (g; raw data) 5 hrs [3, 8]: 180 g and 130 g (2×) and 100 g and 80 g and 95 g
- Raw MPE (%) 5 hrs [3, 8]: 110.0% and 43.6% (2×) and 3.8% and −22.7% and −2.8%
- % MPE (0-100) 24 hrs [3, 7]: 1.5%
- Paw withdrawal thresholds (g; raw data) 24 hrs [3, 7]: 84.2 g
- Raw MPE (%) 24 hrs [3, 7]: −13.3%
- % MPE (0-100) 24 hrs [3, 8]: 0.0% (5×) and 9.1%
- Paw withdrawal thresholds (g; raw data) 24 hrs [3, 8]: 90 g (3×) and 55 g and 100 g and 80 g
- Raw MPE (%) 24 hrs [3, 8]: −5.1% (3×) and −54.6% and 9.1% and −19.2%
- AUC (0-5) [3, 7]: 261.3
- AUC (0-5) [3, 8]: 450.0 and 334.2 and 153.8 and 155.5 and 80.8 and 393.6
- effectiveness in model of hyperalgesia vs 100 μg gabapentin ([3]; 49 μg intrathecal, rat): considerably more effective
- reversing hyperalgesia, compared to gabapentin ([3]; 10 or 49 μg intrathecal vs 100 μg gabapentin, rat): essentially as effective or more effective as gabapentin
